Data as given in ChEMBL document CHEMBL4257490, “Development of a peptide-based bifunctional chelator conjugated to a cytotoxic drug for the treatment of melanotic melanoma” (Medchemcomm, 2018).

Experiments:
[1] = Drug uptake in lung of Balb/c mouse allografted with mouse B16F10 cells using 99mTc(CO)3-labeled compound at 10 to 12 MBq/kg, iv measured at 2 hrs; assay type: ADME, organism-based; conditions: in vivo
[2] = Ratio of drug level in tumor to blood of Balb/c mouse allografted with mouse B16F10 cells using 99mTc(CO)3-labeled compound at 10 to 12 MBq/kg, iv measured at 2 hrs; assay type: ADME, organism-based, Tumor/tissue
[3] = Drug uptake in kidney of Balb/c mouse allografted with mouse B16F10 cells using 99mTc(CO)3-labeled compound at 4 to 8 MBq, iv measured at 4 hrs by scintigraphic imaging method; assay type: ADME, organism-based; conditions: in vivo
[4] = Drug uptake in tumor muscle of Balb/c mouse allografted with mouse B16F10 cells using 99mTc(CO)3-labeled compound at 10 to 12 MBq/kg, iv measured at 2 hrs; assay type: ADME, organism-based; conditions: in vivo
[5] = Drug degradation in histidine solution using 99mTc(CO)3-labeled compound after 24 hrs by TLC method; assay type: physicochemical; conditions: read-out: Drug degradation
[6] = Drug uptake in kidney of Balb/c mouse allografted with mouse B16F10 cells using 99mTc(CO)3-labeled compound at 10 to 12 MBq/kg, iv measured at 4 hrs; assay type: ADME, organism-based; conditions: in vivo
[7] = Drug uptake in stomach of Balb/c mouse allografted with mouse B16F10 cells using 99mTc(CO)3-labeled compound at 10 to 12 MBq/kg, iv measured at 4 hrs; assay type: ADME, organism-based; conditions: in vivo
[8] = Drug uptake in spleen of Balb/c mouse allografted with mouse B16F10 cells using 99mTc(CO)3-labeled compound at 10 to 12 MBq/kg, iv measured at 2 hrs; assay type: ADME, organism-based; conditions: in vivo
[9] = Drug uptake in lung of Balb/c mouse allografted with mouse B16F10 cells using 99mTc(CO)3-labeled compound at 10 to 12 MBq/kg, iv measured at 4 hrs; assay type: ADME, organism-based; conditions: in vivo
[10] = Ratio of drug level in tumor to muscle of Balb/c mouse allografted with mouse B16F10 cells using 99mTc(CO)3-labeled compound at 10 to 12 MBq/kg, iv measured at 4 hrs; assay type: ADME, organism-based, Tumor/tissue; conditions: in vivo
[11] = Drug uptake in mouse B16F10 cells using 99mTc(CO)3-labeled compound at 15 to 20 MBq/ml after 240 mins by gamma scintillation counting method relative to total added activity; assay type: ADME, cell-based; conditions: b16-f10, 4 h
[12] = Drug uptake in kidney of Balb/c mouse allografted with mouse B16F10 cells using 99mTc(CO)3-labeled compound at 10 to 12 MBq/kg, iv measured at 2 hrs; assay type: ADME, organism-based; conditions: in vivo
[13] = Drug uptake in mouse B16F10 cells using 99mTc(CO)3-labeled compound at 15 to 20 MBq/ml after 30 mins by gamma scintillation counting method; assay type: ADME, cell-based; conditions: b16-f10, 0.5 h
[14] = Drug uptake in heart of Balb/c mouse allografted with mouse B16F10 cells using 99mTc(CO)3-labeled compound at 10 to 12 MBq/kg, iv measured at 2 hrs; assay type: ADME, organism-based; conditions: in vivo
[15] = Drug uptake in intestine of Balb/c mouse allografted with mouse B16F10 cells using 99mTc(CO)3-labeled compound at 10 to 12 MBq/kg, iv measured at 2 hrs; assay type: ADME, organism-based; conditions: in vivo
[16] = Drug uptake in tumor of Balb/c mouse allografted with mouse B16F10 cells using 99mTc(CO)3-labeled compound at 4 to 8 MBq, iv measured at 4 hrs by scintigraphic imaging method; assay type: ADME, organism-based, Neoplasm; conditions: in vivo
[17] = Drug uptake in mouse B16F10 cells using 99mTc(CO)3-labeled compound at 15 to 20 MBq/ml after 30 mins by gamma scintillation counting method relative to total added activity; assay type: ADME, cell-based; conditions: b16-f10, 0.5 h
[18] = Drug uptake in spleen of Balb/c mouse allografted with mouse B16F10 cells using 99mTc(CO)3-labeled compound at 10 to 12 MBq/kg, iv measured at 4 hrs; assay type: ADME, organism-based; conditions: in vivo
[19] = Drug uptake in gastrointestinal tract of Balb/c mouse allografted with mouse B16F10 cells using 99mTc(CO)3-labeled compound at 4 to 8 MBq, iv measured at 4 hrs by scintigraphic imaging method; assay type: ADME, organism-based; conditions: in vivo
[20] = Drug uptake in intestine of Balb/c mouse allografted with mouse B16F10 cells using 99mTc(CO)3-labeled compound at 10 to 12 MBq/kg, iv measured at 4 hrs; assay type: ADME, organism-based; conditions: in vivo
[21] = Ratio of drug level in tumor to muscle of Balb/c mouse allografted with mouse B16F10 cells using 99mTc(CO)3-labeled compound at 10 to 12 MBq/kg, iv measured at 2 hrs; assay type: ADME, organism-based, Tumor/tissue; conditions: in vivo
[22] = Drug uptake in liver of Balb/c mouse allografted with mouse B16F10 cells using 99mTc(CO)3-labeled compound at 4 to 8 MBq, iv measured at 4 hrs by scintigraphic imaging method; assay type: ADME, organism-based; conditions: in vivo
[23] = Drug uptake in heart of Balb/c mouse allografted with mouse B16F10 cells using 99mTc(CO)3-labeled compound at 10 to 12 MBq/kg, iv measured at 4 hrs; assay type: ADME, organism-based; conditions: in vivo
[24] = Hemolytic activity in rat erythrocytes up to 50 uM after 1 hr relative to control; assay type: ADME, cell-based, Erythrocyte; conditions: read-out: Activity
[25] = Drug uptake in muscle of Balb/c mouse allografted with mouse B16F10 cells using 99mTc(CO)3-labeled compound at 10 to 12 MBq/kg, iv measured at 4 hrs; assay type: ADME, organism-based, Muscle tissue; conditions: in vivo
[26] = Drug uptake in tumor muscle of Balb/c mouse allografted with mouse B16F10 cells using 99mTc(CO)3-labeled compound at 10 to 12 MBq/kg, iv measured at 4 hrs; assay type: ADME, organism-based; conditions: in vivo
[27] = Drug uptake in liver of Balb/c mouse allografted with mouse B16F10 cells using 99mTc(CO)3-labeled compound at 10 to 12 MBq/kg, iv measured at 4 hrs; assay type: ADME, organism-based; conditions: in vivo
[28] = Drug uptake in mouse B16F10 cells using 99mTc(CO)3-labeled compound at 15 to 20 MBq/ml after 240 mins by gamma scintillation counting method; assay type: ADME, cell-based; conditions: b16-f10, 4 h
[29] = Drug uptake in urine of Balb/c mouse allografted with mouse B16F10 cells using 99mTc(CO)3-labeled compound at 10 to 12 MBq/kg, iv measured at 2 hrs; assay type: ADME, organism-based; conditions: in vivo
[30] = Drug uptake in liver of Balb/c mouse allografted with mouse B16F10 cells using 99mTc(CO)3-labeled compound at 10 to 12 MBq/kg, iv measured at 2 hrs; assay type: ADME, organism-based; conditions: in vivo
[31] = Ratio of drug level in tumor to blood of Balb/c mouse allografted with mouse B16F10 cells using 99mTc(CO)3-labeled compound at 10 to 12 MBq/kg, iv measured at 4 hrs; assay type: ADME, organism-based, Tumor/tissue
[32] = Drug uptake in urinary bladder of Balb/c mouse allografted with mouse B16F10 cells using 99mTc(CO)3-labeled compound at 4 to 8 MBq, iv measured at 4 hrs by scintigraphic imaging method; assay type: ADME, organism-based; conditions: in vivo
[33] = Hemolytic activity in rat erythrocytes at 100 uM after 1 hr relative to control; assay type: ADME, cell-based, Erythrocyte; conditions: read-out: Activity
[34] = Drug uptake in stomach of Balb/c mouse allografted with mouse B16F10 cells using 99mTc(CO)3-labeled compound at 10 to 12 MBq/kg, iv measured at 2 hrs; assay type: ADME, organism-based; conditions: in vivo
[35] = Drug uptake in blood of Balb/c mouse allografted with mouse B16F10 cells using 99mTc(CO)3-labeled compound at 10 to 12 MBq/kg, iv measured at 4 hrs; assay type: ADME, organism-based; conditions: in vivo
[36] = Metabolic stability in rat serum assessed as parent compound remaining using 99mTc(CO)3-labeled compound after 24 hrs by TLC method; assay type: ADME, cell-free; conditions: read-out: Stability
[37] = n-Octanol-phosphate buffer partition co-efficient, log P of 99mTc(CO)3-labeled compound at 2 to 3 KBq after 1 min by gamma scintillation counting method; assay type: physicochemical
[38] = Stability in saline assessed as parent compond remaining using 99mTc(CO)3-labeled compound after 24 hrs by TLC method; assay type: physicochemical; conditions: read-out: Stability
[39] = Drug uptake in muscle of Balb/c mouse allografted with mouse B16F10 cells using 99mTc(CO)3-labeled compound at 10 to 12 MBq/kg, iv measured at 2 hrs; assay type: ADME, organism-based, Muscle tissue; conditions: in vivo
[40] = Drug uptake in urine of Balb/c mouse allografted with mouse B16F10 cells using 99mTc(CO)3-labeled compound at 10 to 12 MBq/kg, iv measured at 4 hrs; assay type: ADME, organism-based; conditions: in vivo
[41] = Drug uptake in blood of Balb/c mouse allografted with mouse B16F10 cells using 99mTc(CO)3-labeled compound at 10 to 12 MBq/kg, iv measured at 2 hrs; assay type: ADME, organism-based; conditions: in vivo

Substance: H-HYKHGKDGR-NH2
- Drug uptake [1]: 0.25 % ID/g
- Kp at 2 h [2]: 0.61
- Drug uptake [3]: Active
- Drug uptake [4]: 0.92 % ID/g
- degraded at 24 h [5]: 5%
- Drug uptake [6]: 13.91 % ID/g
- Drug uptake [7]: 0.21 % ID/g
- Drug uptake [8]: 0.76 % ID/g
- Drug uptake [9]: 0.19 % ID/g
- Ratio [10]: 7.78
- Drug uptake [11]: 6.11%
- Drug uptake [12]: 16.12 % ID/g
- Drug uptake [13]: 35.24%
- Drug uptake [14]: 0.09 % ID/g
- Drug uptake [15]: 7.5 % ID/g
- Drug uptake [16]: Not Active
- Drug uptake [17]: 3.99%
- Drug uptake [18]: 0.54 % ID/g
- Drug uptake [19]: Active
- Drug uptake [20]: 6.3 % ID/g
- Ratio [21]: 5.75
- Drug uptake [22]: Active
- Drug uptake [23]: 0.07 % ID/g
- hemolysis at 1 h [24]: 5 to 6%
- Drug uptake [25]: 0.14 % ID/g
- Drug uptake [26]: 1.09 % ID/g
- Drug uptake [27]: 18.89 % ID/g
- Drug uptake [28]: 76%
- Drug uptake [29]: 41.15 %ID/ml
- Drug uptake [30]: 21.17 % ID/g
- Kp at 4 h [31]: 0.83
- Drug uptake [32]: Active
- hemolysis at 1 h, 100 µM [33]: 7 to 9%
- Drug uptake [34]: 0.29 % ID/g
- Drug uptake [35]: 1.31 %ID/ml
- remaining at 24 h [36]: ≥ 92%
- logP at 1 min [37]: -1.34
- remaining at 24 h [38]: ≥ 92%
- Drug uptake [39]: 0.16 % ID/g
- Drug uptake [40]: 45.95 %ID/ml
- Drug uptake [41]: 1.5 %ID/ml
